{
  "source": "patent US8637572B2",
  "about": "“Composition for promoting collagen production” (Shiseido Company, Ltd., priority 2009, dated 2014)",
  "key": {"[1]": {"system": "human neonatal dermal fibroblasts", "experiment": "Type I atelocollagen production after pepsin treatment, by type I human collagen ELISA", "format": "cell-based", "conditions": "for promotion of type I collagen production compared to the negative control (Bonferroni/Dunn test): 0.1 μM, atelocollagen ELISA", "experimental": "(§1) Commercially available human neonatal dermal fibroblasts (Cryo NHDF-Neo, manufactured by Sanko Junyaku Co., Ltd.) were used. The cells were inoculated in a commercially available 24-well plate to have 2×10^5 cells per well. The cells were then cultured for four hours in a commercially available medium for cell culture (D-MEM (1 g/L glucose), manufactured by Wako Pure Chemical Industries, Ltd.) to which 10% bovine fetal serum was supplemented (herein below, referred to as a “standard medium”) in a 5% CO2 and saturated water vapor atmosphere at 37° C. (degrees Celsius).\n(§2) Subsequently, the medium was switched to a commercially available medium for cell culture (D-MEM (1 g/L glucose), manufactured by Wako Pure Chemical Industries, Ltd.) supplemented with 0.5% bovine fetal serum (herein below, referred to as “low-serum medium”) and cultured for approximately one day in a 5% CO2 and saturated water vapor atmosphere at 37° C. (degrees Celsius). D-aspartic acid (manufactured by Wako Pure Chemical Industries, Ltd., 018-04821) was added to the low-serum medium to have the concentration of 0.01 μM (micro-molar), 0.1 μM (micro-molar), […] μM (micro-molar), or 320 μM (micro-molar). As a positive control, magnesium L-ascorbyl phosphate (L-Ascorbic Acid Phosphate Magnesium Salt n-Hydrate, herein below, referred to as “APM”, manufactured by Wako Pure Chemical Industries, Ltd., 013-19641) was added to the low-serum medium to have the concentration of 150 μM (micro-molar), 250 μM (micro-molar), or 500 μM (micro-molar). Further, the low-serum medium described above to which neither APM nor D-aspartic acid had been added was employed as a negative control.\nThe cell culture and addition of amino acids were carried out in the same manner as the Example 1. D-Aspartic acid (manufactured by Wako Pure Chemical Industries, Ltd., 018-04821) of 0.1 μM (micro-molar) and D-alanine (manufactured by Peptide Institute, Inc., 2801) of 0.1 μM (micro-molar) or 0.001 μM (micro-molar) were used as amino acids. Further, the low-serum medium described above to which neither D-aspartic acid nor D-alanine had been added was employed as a negative control. As a positive control, APM was added to the low-serum medium described above to have the concentration of 250 μM (micro-molar). In order to evaluate the production amount of type I collagen, type I procollagen and tropocollagen produced by human neonatal dermal fibroblasts were treated with pepsin (800 to 2500 unit/mg, P7000, manufactured by SIGMA), and the concentration of type I atelocollagen was measured by type I human collagen ELISA (EC1-E105, manufactured by AC Biotechnologies) according to the manufacturer's instruction."}, "[2]": {"system": "human neonatal dermal fibroblasts", "experiment": "Type I collagen production: PIP (C-terminal peptide of type I procollagen) in culture supernatant by EIA", "format": "cell-based", "conditions": "for effect on promoting type I collagen production compared to the negative control (Bonferroni/Dunn test): under every concentration condition", "experimental": "as §1, §2\nAfter completing the cell culture for two days, the culture supernatant was collected and the concentration of C-terminal peptide of type I procollagen (herein below, referred to as “PIP”) produced by human neonatal dermal fibroblasts was measured by using Procollagen type I C-peptide EIA kit (manufactured by Takara Bio Inc.) according to the manufacturer's instruction.\nThe cell culture, addition of amino acids, and quantification of production amount of type I collagen were carried out in the same manner as the Example 1. As an amino acid, D-alanine (manufactured by Peptide Institute, Inc., 2801) was used at the concentrations of 0.01 μM (micro-molar), 0.1 μM (micro-molar), 10 μM (micro-molar), 1000 μM (micro-molar), and 17400 μM (micro-molar). Further, the low-serum medium described above to which neither APM nor D-alanine had been added was employed as a negative control.\nThe cell culture, addition of amino acids, and quantification of production amount of type I collagen were carried out in the same manner as the Example 1. D-Aspartic acid (manufactured by Wako Pure Chemical Industries, Ltd., 018-04821) of 0.1 μM (micro-molar) and L-aspartic acid (manufactured by Wako Pure Chemical Industries, Ltd., 013-04832) of 0.1 μM (micro-molar) were used as amino acids. Further, the low-serum medium described above to which neither L-aspartic acid nor D-aspartic acid had been added was employed as a negative control.\nThe cell culture, addition of amino acids, and quantification of production amount of type I collagen were carried out in the same manner as the Example 1. D-Alanine (manufactured by Peptide Institute, Inc., 2801) of 0.1 μM (micro-molar) or 150 μM (micro-molar) and L-alanine (manufactured by Peptide Institute, Inc., 2701) of 0.1 μM (micro-molar) or 150 μM (micro-molar) were used as amino acids. Further, the low-serum medium described above to which neither L-alanine nor D-alanine had been added was employed as a negative control."}, "[3]": {"conditions": "Example 5 results (1), added at 0.1 μM, negative control 1.8 μg/mL"}, "[4]": {"conditions": "Example 4, added at 0.1 μM, negative control 361 ng/mL"}, "[5]": {"conditions": "Example 4, added at 150 μM, negative control 361 ng/mL"}, "[6]": {"conditions": "Example 3, added at 0.1 μM, negative control 361 ng/mL"}},
  "data": [
    {"compound": "C[C@@H](N)C(=O)O", "note": "[D-alanine]", "values": [
      {"measurement": "promotion of type I collagen production compared to the negative control (Bonferroni/Dunn test)", "setting": "[1]; Example 5 results (1)", "result": "promoted with statistical significance"},
      {"measurement": "concentration of type I atelocollagen", "setting": "[1]; [3]", "result": "4.0 μg (microgram)/mL"},
      {"measurement": "concentration of type I atelocollagen", "setting": "[1]; Example 5 results (2), added at 0.001 μM, negative control 1.7 μg/mL", "result": "2.1 μg (microgram)/mL"},
      {"measurement": "PIP concentration", "setting": "[2]; Example 2, added at 0.01 μM, negative control 551 ng/mL", "result": 750, "unit": "ng/mL"},
      {"measurement": "PIP concentration", "setting": "[2]; Example 2, added at 0.1 μM, negative control 551 ng/mL", "result": 789, "unit": "ng/mL"},
      {"measurement": "PIP concentration", "setting": "[2]; Example 2, added at 10 μM, negative control 551 ng/mL", "result": 876, "unit": "ng/mL"},
      {"measurement": "PIP concentration", "setting": "[2]; Example 2, added at 1000 μM, negative control 551 ng/mL", "result": 823, "unit": "ng/mL"},
      {"measurement": "PIP concentration", "setting": "[2]; Example 2, added at 17400 μM, negative control 551 ng/mL", "result": 799, "unit": "ng/mL"},
      {"measurement": "effect on promoting type I collagen production compared to the negative control (Bonferroni/Dunn test)", "setting": "[2]; Example 2", "result": "statistically significant effect"},
      {"measurement": "promotion of type I collagen production compared to the negative control (Bonferroni/Dunn test)", "setting": "[2]; Example 4, 0.1 μM or 150 μM", "result": "promoted with statistical significance"},
      {"measurement": "PIP concentration", "setting": "[2]; [4]", "result": 502, "unit": "ng/mL"},
      {"measurement": "PIP concentration", "setting": "[2]; [5]", "result": 450, "unit": "ng/mL"}
    ]},
    {"compound": "N[C@H](CC(=O)O)C(=O)O", "note": "[D-aspartic acid]", "values": [
      {"measurement": "promotion of type I collagen production compared to the negative control (Bonferroni/Dunn test)", "setting": "[1]; Example 5 results (1)", "result": "promoted with statistical significance"},
      {"measurement": "concentration of type I atelocollagen", "setting": "[1]; [3]", "result": "3.8 μg (microgram)/mL"},
      {"measurement": "effect on promoting type I collagen production in comparison with APM", "setting": "[2]; Example 1, 0.01 μM to 100 μM similar to APM at 150 μM", "result": "prominently more potent effect on promoting type I collagen production than APM"},
      {"measurement": "PIP concentration", "setting": "[2]; Example 1, added at 0.01 μM, negative control 583 ng/mL", "result": 1286, "unit": "ng/mL"},
      {"measurement": "PIP concentration", "setting": "[2]; Example 1, added at 0.1 μM, negative control 583 ng/mL", "result": 1159, "unit": "ng/mL"},
      {"measurement": "PIP concentration", "setting": "[2]; Example 1, added at 10 μM, negative control 583 ng/mL", "result": 1117, "unit": "ng/mL"},
      {"measurement": "PIP concentration", "setting": "[2]; Example 1, added at 100 μM, negative control 583 ng/mL", "result": 1119, "unit": "ng/mL"},
      {"measurement": "PIP concentration", "setting": "[2]; Example 1, added at 320 μM, negative control 583 ng/mL", "result": 1007, "unit": "ng/mL"},
      {"measurement": "effect on promoting type I collagen production compared to the negative control (Bonferroni/Dunn test)", "setting": "[2]; Example 1", "result": "statistically significant effect"},
      {"measurement": "promotion of type I collagen production compared to the negative control (Bonferroni/Dunn test)", "setting": "[2]; Example 3, 0.1 μM", "result": "promoted with statistical significance"},
      {"measurement": "PIP concentration", "setting": "[2]; [6]", "result": 456, "unit": "ng/mL"}
    ]},
    {"compound": "C[C@H](N)C(=O)O", "note": "[L-alanine, reference compound]", "values": [
      {"measurement": "PIP concentration", "setting": "[2]; [4]", "result": 405, "unit": "ng/mL"},
      {"measurement": "PIP concentration", "setting": "[2]; [5]", "result": 413, "unit": "ng/mL"}
    ]},
    {"compound": "N[C@@H](CC(=O)O)C(=O)O", "note": "[L-aspartic acid, reference compound]", "values": [
      {"measurement": "PIP concentration", "setting": "[2]; [6]", "result": 406, "unit": "ng/mL"}
    ]},
    {"compound": "magnesium L-ascorbyl phosphate [APM, reference compound]", "values": [
      {"measurement": "concentration of type I atelocollagen", "setting": "[1]; Example 5 results (1), added at 250 μM, negative control 1.8 μg/mL", "result": "3.9 μg (microgram)/mL"},
      {"measurement": "concentration of type I atelocollagen", "setting": "[1]; Example 5 results (2), added at 250 μM, negative control 1.7 μg/mL", "result": "2.6 μg (microgram)/mL"},
      {"measurement": "PIP concentration", "setting": "[2]; Example 1, added at 150 μM, two days culture, low-serum medium, negative control 583 ng/mL", "result": 1183, "unit": "ng/mL"},
      {"measurement": "PIP concentration", "setting": "[2]; Example 1, added at 250 μM, negative control 583 ng/mL", "result": 1666, "unit": "ng/mL"},
      {"measurement": "PIP concentration", "setting": "[2]; Example 1, added at 500 μM, negative control 583 ng/mL", "result": 1416, "unit": "ng/mL"},
      {"measurement": "effect on promoting type I collagen production compared to the negative control (Bonferroni/Dunn test)", "setting": "[2]; Example 1", "result": "statistically significant effect"},
      {"measurement": "PIP concentration", "setting": "[2]; Example 2, added at 150 μM, negative control 551 ng/mL", "result": 1183, "unit": "ng/mL"},
      {"measurement": "PIP concentration", "setting": "[2]; Example 2, added at 250 μM, negative control 551 ng/mL", "result": 1666, "unit": "ng/mL"},
      {"measurement": "PIP concentration", "setting": "[2]; Example 2, added at 500 μM, negative control 551 ng/mL", "result": 1416, "unit": "ng/mL"},
      {"measurement": "effect on promoting type I collagen production compared to the negative control (Bonferroni/Dunn test)", "setting": "[2]; Example 2", "result": "statistically significant effect"}
    ]}
  ]
}
